Experiment: xn = mol fraction of the nth substance listed

C[P+](c1ccccc1)(c1ccccc1)c1ccccc1.[Br-] + OCC(O)CO + OCCO
298.2 K, 101 kPa
Details	viscosity [mPa·s]
x1 = 0.2, x2 = 0	121
x1 = 0.2, x2 = 0.4	455
x1 = 0.2, x2 = 0.8	1894

C[N+](C)(C)CCO.O=S(=O)([N-]S(=O)(=O)C(F)(F)F)C(F)(F)F + OCCCCCO
101 kPa
Details	viscosity [mPa·s]
318.15 K, x2 = 0.2149	37.3
323.15 K, x2 = 0	39.3
323.15 K, x2 = 0.2149	31.2
328.15 K, x2 = 0.2149	26.3
333.15 K, x2 = 0.2149	22.5
338.15 K, x2 = 0.4145	16.11
343.15 K, x2 = 0.6847	12.37

C[N+](C)(C)CCO.O=S(=O)([N-]S(=O)(=O)C(F)(F)F)C(F)(F)F + OCCCO
101 kPa
Details	viscosity [mPa·s]
313.15 K, x2 = 0.1272	47.2
313.15 K, x2 = 0.4106	30
313.15 K, x2 = 0.5712	24.9
318.15 K, x2 = 0	46.8
328.15 K, x2 = 0	33.4
333.15 K, x2 = 0.1272	23.9
333.15 K, x2 = 0.2297	20.5
333.15 K, x2 = 0.6946	11.27
338.15 K, x2 = 0.2297	17.8
338.15 K, x2 = 0.6946	9.76
338.15 K, x2 = 0.9474	8.48
343.15 K, x2 = 0.2297	15.62
348.15 K, x2 = 0	19.1
348.15 K, x2 = 0.5712	8.63
353.15 K, x2 = 0.8367	5.98

CCCC[P+](c1ccccc1)(c1ccccc1)c1ccccc1.[Br-] + OCCO
100 kPa, x2 = 0.9756
Details	viscosity [mPa·s]
303.15 K	21.6
313.15 K	18.5
323.15 K	15.5
333.15 K	14
343.15 K	12
353.15 K	10.5

C[N+](C)(C)CCO.O=S(=O)([N-]S(=O)(=O)C(F)(F)F)C(F)(F)F + OCCO
100 kPa, x1 = 0.14
Details	electrical conductivity [S/m]	viscosity [mPa·s]
303 K	0.381	17.9
323 K	0.73	8.85

C[P+](c1ccccc1)(c1ccccc1)c1ccccc1.[Br-] + OCCO
Details	viscosity [mPa·s]
298.15 K, 100 kPa, x1 = 0.1	35
298.2 K, 101 kPa, x1 = 0.2	121
303.15 K, 100 kPa, x1 = 0.33	116.5
303.15 K, 100 kPa, x2 = 0.8333	56.5
303.15 K, 100 kPa, x2 = 0.9091	30.5
303.15 K, 100 kPa, x2 = 0.9756	17.6
313.15 K, 100 kPa, x1 = 0.1	18.24
313.15 K, 100 kPa, x1 = 0.33	65.5
313.15 K, 100 kPa, x2 = 0.9756	13
323.15 K, 100 kPa, x2 = 0.9756	9.5
323.15 K, 101 kPa, x1 = 0.25	31.72
333.15 K, 100 kPa, x2 = 0.9756	7.5
343.15 K, 100 kPa, x2 = 0.9756	6
353.15 K, 100 kPa, x2 = 0.9756	5.1

O=S=O + OCCO + C[P+](c1ccccc1)(c1ccccc1)c1ccccc1.[Br-]
100 kPa
Details	viscosity [mPa·s]
303.15 K, x1 = 0.02458, x2 = 0.9516	18.4
313.15 K, x1 = 0.01623, x2 = 0.9598	14
323.15 K, x1 = 0.01303, x2 = 0.9629	10.1
333.15 K, x1 = 0.01147, x2 = 0.9644	7.5
343.15 K, x1 = 0.009705, x2 = 0.9661	6

C[N+](C)(C)CCO.O=S(=O)([N-]S(=O)(=O)C(F)(F)F)C(F)(F)F + OCCOCCOCCOCCO
Details	viscosity [mPa·s]
298.15 K, 101 kPa, x2 = 0	144.8

CCCCCCCCCCCCCCCC[N+](C)(C)C.[Br-] + OC[C@@H](O)[C@@H](O)[C@H](O)[C@@H](O)CO + O
viscosity [mPa·s], 100 kPa
Details	298.15 K	308.15 K	318.15 K
x2 = 0, x1 = 7.21e-06	0.896	0.742	0.617
x2 = 0, x1 = 1.442e-05	0.898	0.744	0.617
x2 = 0, x1 = 2.162e-05	0.9	0.745	0.617

From the CheMixHub ionic liquid set
